{
  "source": "patent US10414778B2",
  "about": "“Methods for treatment of resistant cancer” (New Mexico Tech University Research Park Corporation, priority 2016, dated 2019)",
  "key": {"MES-SA cells": {"tested_on": "MES-SA cells", "assay": "MTT growth inhibition, MES-SA uterine sarcoma", "assay_type": "cell-based", "conditions": "Homo sapiens; parent MES-SA cells at start of selection of doxorubicin-resistant cells; read-out: GI50 concentration", "protocol": "(§1) Human cancer cell lines were obtained from the American Type Culture Collection (ATCC, Manassas, Va., USA), the European Collection of Cell Culture (ECACC, Salisbury, UK), and the Deutsche Sammlung von Mikroorganismen und Zellkulturen (DSMZ, Braunschweig, Germany). Human cervical adenocarcinoma HeLa cells were cultured in DMEM supplemented with 10% fetal bovine serum (FBS). Human mammary carcinoma MCF-7 cells were cultured in RPMI supplemented with 10% FBS. The U87 cells (ATCC HTB-14) were cultured in DMEM culture medium, while the A549 cells (DSMZ ACC107) were cultured in RPMI culture medium supplemented with 10% heat-inactivated FBS. The GBM Hs683 (ATCC HTB-138) and the T98G (ATCC CRL-1690) cell lines were cultivated in DMEM supplemented with 10% FBS. The GBM U251 cells (ECACC code 09063001) were cultured in 10% MEM. The human uterine sarcoma MES-SA and MES-SA/Dx5 cells were cultured in RPMI-1640 medium supplemented with 10% FBS with MES SA/Dx5 maintained in the presence of 500 nM Doxorubicin (Sigma™). The U373 glioblastoma cells (ECACC 08061901) were cultured in RPMI culture medium supplemented with 10% heat-inactivated FBS.\nAll compounds were dissolved in DMSO at a concentration of either 100 mM or 50 mM prior to cell treatment. The cells were trypsinized and seeded at various cell concentrations depending on the cell type. The cells were grown for 24 h to 72 h, treated with compounds at concentrations ranging from 0.001 to 100 μM, and incubated for 48, 72, or 96 h in 100 or 200 μL media depending on the cell line used. Cells treated with 0.1% DMSO were used as a negative control, and cells treated with 1 μM phenyl arsine oxide (PAO) were used as a positive control. […]\nDrug-resistant cell lines (i.e., glioma: Hs683, U373, U251, U87, T98G; lung cancer: A549, H2073; uterine carcinoma: MES-SA/Dx5) were complemented with drug-sensitive cell lines, H1993 lung cancer and MES-SA uterine cancer, which were used as controls. […] The GI50 values were calculated after 48-96 hours of treatment with the indicated compounds in replicate using the MTT growth assay."}, "GBM 090909 cells": {"tested_on": "GBM 090909 cells", "assay": "MTT growth inhibition, primary GBM-derived neurosphere culture GBM 090909", "assay_type": "cell-based", "conditions": "Homo sapiens, Table 3, 48-96 h treatment, read-out: GI50 in vitro values, glioma GBM 090909", "protocol": "(§2) Cell culture media were supplemented with 4 mM glutamine (Lonza code BE17-605E), 100 μg/mL gentamicin (Lonza code 17-5182), and penicillin-streptomycin (200 units/ml and 200 μg/ml) (Lonza code 17-602E). Primary GBM-derived neurosphere cultures from a patient undergoing surgical debulking were established using previously described methods. Briefly, resected tumor tissue was minced with a sterile scalpel and dissociated in 3 mL of neurobasal (NB) media containing 100 U/mL of collagenase (Life Technologies™) for 30 minutes at 37° C. Dissociated tissue was then vortexed and filtered using a sterile 70 um nylon Falcon™ cell strainer (Corning™). […]\n(§3) Compound 4l was evaluated for in vitro growth inhibition against a panel of cancer cell lines, including U373, U251, U87, T98G, human GBM, and A549 NSCLC. […] Compound 4l was also evaluated for in vitro growth inhibition against the apoptosis-sensitive tumor model Hs683 anaplastic oligodendroglioma as a reference."}, "GBM 031810 cells": {"tested_on": "GBM 031810 cells", "assay": "MTT growth inhibition, primary GBM-derived neurosphere culture GBM 031810", "assay_type": "cell-based", "conditions": "Homo sapiens, Table 3, 48-96 h treatment, read-out: GI50 in vitro values, glioma GBM 031810", "protocol": "as §2, §3"}, "T98G cells": {"tested_on": "T98G cells", "assay": "MTT growth inhibition, T98G glioma", "assay_type": "cell-based, human", "protocol": "as §1\n(§4) All compounds were dissolved in DMSO at a concentration of either 100 mM or 50 mM prior to cell treatment. The cells were trypsinized and seeded at various cell concentrations depending on the cell type. The cells were grown for 24 h to 72 h, treated with compounds at concentrations ranging from 0.001 to 100 μM, and incubated for 48, 72, or 96 h in 100 or 200 μL media depending on the cell line used. Cells treated with 0.1% DMSO were used as a negative control, and cells treated with 1 μM phenyl arsine oxide (PAO) were used as a positive control.\nas §3\n(§5) Due to their high potencies, compounds 5l and 5g were used to determine the effects of the compounds on drug-resistant tumor cells. Drug-resistant cell lines (i.e., glioma: Hs683, U373, U251, U87, T98G; lung cancer: A549, H2073; uterine carcinoma: MES-SA/Dx5) were complemented with drug-sensitive cell lines, H1993 lung cancer and MES-SA uterine cancer, which were used as controls. Bulbispermine and paclitaxel were also used as controls. The GI50 values were calculated after 48-96 hours of treatment with the indicated compounds in replicate using the MTT growth assay."}, "U373 glioblastoma cells": {"tested_on": "U373 glioblastoma cells", "assay": "MTT growth inhibition, U373 glioma", "assay_type": "cell-based, human", "protocol": "as §1, §4, §3, §5"}, "U251 cells": {"tested_on": "U251 cells", "assay": "MTT growth inhibition, U251 glioma", "assay_type": "cell-based, human", "protocol": "as §1, §4, §3, §5"}, "Hs683 cells": {"tested_on": "Hs683 cells", "assay": "MTT growth inhibition, Hs683 glioma", "assay_type": "cell-based, human", "protocol": "as §1, §4, §3, §5"}, "U87 cells": {"tested_on": "U87 cells", "assay": "MTT growth inhibition, U87 glioma", "assay_type": "cell-based, human", "protocol": "as §1, §4, §3, §5"}},
  "note": "Where two headings read alike, the source gives them in different places.",
  "data": [
    {"smiles": "COc1cccc2c1C(=O)c1c(O)c3c(c(O)c1C2=O)C[C@@](O)(C(=O)CO)C[C@@H]3O[C@H]1C[C@H](N)[C@H](O)[C@H](C)O1", "note": "[DOX, doxorubicin, reference compound]", "values": [
      {"measurement": "GI50", "setting": "MES-SA cells", "result": 0.1, "unit": "µM"}
    ]},
    {"smiles": "Cn1nnc2c(C(N)=O)ncn2c1=O", "note": "[TMZ, temozolomide, reference compound]", "values": [
      {"measurement": "GI50", "setting": "GBM 090909 cells", "result": 50, "unit": "µM"},
      {"measurement": "GI50", "setting": "GBM 031810 cells", "result": "> 1000", "unit": "µM"}
    ]},
    {"smiles": "O[C@H]1C=C[C@@]23c4cc5c(cc4CN(C[C@@H]2O)[C@H]3C1)OCO5", "note": "[bulbispermine, reference compound]", "values": [
      {"measurement": "GI50", "setting": "T98G cells; Table 3, 48-96 h treatment, read-out: GI50 in vitro values, glioma T98G", "result": 99, "unit": "µM"},
      {"measurement": "GI50", "setting": "T98G cells; Table 5, 48-96 hours of treatment, read-out: GI50, Glioma T98G", "result": 99, "unit": "µM"},
      {"measurement": "GI50", "setting": "U373 glioblastoma cells; Table 3, 48-96 h treatment, read-out: GI50 in vitro values, glioma U373", "result": 53, "unit": "µM"},
      {"measurement": "GI50", "setting": "U373 glioblastoma cells; Table 5, 48-96 hours of treatment, read-out: GI50, Glioma U373", "result": 53, "unit": "µM"},
      {"measurement": "GI50", "setting": "U251 cells; Table 3, 48-96 h treatment, read-out: GI50 in vitro values, glioma U251", "result": 41, "unit": "µM"},
      {"measurement": "GI50", "setting": "U251 cells; Table 5, 48-96 hours of treatment, read-out: GI50, Glioma U251", "result": 41, "unit": "µM"},
      {"measurement": "GI50", "setting": "Hs683 cells; Table 3, 48-96 h treatment, read-out: GI50 in vitro values, glioma Hs683", "result": 27, "unit": "µM"},
      {"measurement": "GI50", "setting": "Hs683 cells; Table 5, 48-96 hours of treatment, read-out: GI50, Glioma Hs683", "result": 27, "unit": "µM"},
      {"measurement": "GI50", "setting": "U87 cells; Table 3, 48-96 h treatment, read-out: GI50 in vitro values, glioma U87", "result": 38, "unit": "µM"},
      {"measurement": "GI50", "setting": "U87 cells; Table 5, 48-96 hours of treatment, read-out: GI50, Glioma U87", "result": 38, "unit": "µM"}
    ]}
  ]
}
